Data reported in patent US20260076973A1 (priority 2023, published 2026).
Structures can show the parent of a compound that is named as a salt. Where two headings read alike, the source gives them in different places.

Test system: SARS-CoV-2(delta variant)
Experiment: microbe, parasite or virus in culture
Format: cell-based
[1] = Severe acute respiratory syndrome coronavirus 2, Vero C1008, read-out: IC50
[2] = Severe acute respiratory syndrome coronavirus 2, Vero C1008, read-out: IC90
[3] = Severe acute respiratory syndrome coronavirus 2, Vero C1008

Compound	IC50 [1] [nM]	IC90 [2] [nM]	further results
CCOC(=O)c1ccc(Nc2nc(Nc3ccc(C)cc3)nc(N3CCOCC3)n2)cc1 [VIRADEM-11916, 4-(4-Morpholin-4-yl-6-p-tolylamino[1,3,5]-2-ylamino)-benzoic acid ethyl ester]			IC50 (read-out: IC50): 559 nM; IC90 (read-out: IC90): 707 nM
CCOC(=O)c1ccc(Nc2nc(Nc3ccc(C)c(C)c3)nc(N3CCOCC3)n2)cc1 [VIRADEM-11913, 4-[4-(3,4-Dimethylphenylamino)-6-morpholin-4-yl-[1,3,5]-2-ylamino]-benzoic acid ethyl ester]			IC50 (read-out: IC50): 245 nM; IC90 (read-out: IC90): 331 nM
Cc1cccc(Nc2nc(Nc3ccc(C(C)C)cc3)nc(N3CCOCC3)n2)c1 [VIRADEM-12251, N-(4-Isoproylphenyl)-6-morpholin-4-yl-N^1-m-tolyl-[1,3,5]triazine-2,4-diamine hydrochloride]			IC50 (read-out: IC50): 951 nM; IC90 (read-out: IC90): 1170 nM
Cc1ccc(Nc2nc(N3CCOCC3)nc(N3CCCc4ccccc43)n2)cc1C [VIRADEM-15278, [4-(3,4-Dihydro-2-H-quinolin-1-yl)-6-morpholin-4-yl-[1,3,5]triazin-2-yl]-(3,4-dimethylphenyl)-amine]			IC50 (read-out: IC50): 194 nM; IC90 (read-out: IC90): 388 nM
Cc1ccc(Nc2nc(Nc3ccc(C)c(C)c3)nc(N3CCOCC3)n2)cc1 [VIRADEM-11141]	125	150	
Cc1cccc(N2C(N3CCOCC3)=NC(N)=NC2Nc2ccc(F)cc2)c1 (stereo not shown) [VIRADEM-11787, N-(4-Fluorophenyl)-6-morpholin-4-yl-N^1-m-tolyl-[1,3,5]triazine-2,4-diamine hydrochloride]	404	446	
CCOC(=O)c1ccc(Nc2nc(Nc3cc(C)cc(C)c3)nc(N3CCOCC3)n2)cc1 [VIRADEM-11934, 4-[4-(3,5-Dimethylphenylamino)-6-morpholin-4-yl-[1,3,5]-2-ylamino]-benzoic acid ethyl ester]			IC50 (read-out: IC50): 1020 nM; IC90 (read-out: IC90): 1240 nM
Cc1cccc(N2C(N3CCOCC3)=NC(N)=NC2Nc2cccc(Cl)c2)c1 (stereo not shown) [VIRADEM-11781, N-(3-Chlorophenyl)-6-morpholin-4-yl-N^1-m-tolyl-[1,3,5]triazine-2,4-diamine hydrochloride]	1280	1370	
Cc1ccc(Nc2nc(N3CCOCC3)nc(N3CCOCC3)n2)cc1C [VIRADEM-10884, (3,4-dimethylphenyl)-(4,6-dimorpholin-4-yl-[1,3,5]triazin-2-yl)-amine]	389	477	
COc1ccc(Nc2nc(Nc3cccc(C)c3)nc(N3CCOCC3)n2)cc1 [hydrochloride]			IC50 [3]: 338 nM; IC90 [3]: 356 nM
Cc1ccc(N2C(N3CCOCC3)=NC(N)=NC2Nc2cccc(F)c2)cc1 (stereo not shown) [VIRADEM-11785, N-(3-Fluorophenyl)-6-morpholin-4-yl-N^1-p-tolyl-[1,3,5]triazine-2,4-diamine hydrochloride]	559	690	
Cc1cccc(N2C(N3CCOCC3)=NC(N)=NC2Nc2cccc(F)c2)c1 (stereo not shown) [VIRADEM-11786, N-(3-Fluorophenyl)-6-morpholin-4-yl-N^1-m-tolyl-[1,3,5]triazine-2,4-diamine hydrochloride]	371	396	
CCOC(=O)c1ccc(Nc2nc(Nc3ccc(F)cc3)nc(N3CCOCC3)n2)cc1 [VIRADEM-11660, 4-[4-(4-Fluorophenylamino)-6-morpholin-4-yl-[1,3,5]triazin-2-ylamino]benzoic acid ethyl ester]	1860	> 3000	
Cc1ccc(Nc2nc(Nc3cccc(C(F)(F)F)c3)nc(N3CCOCC3)n2)cc1C [VIRADEM-11914, N-(3,4-Dimethylphenyl)-6-morpholin-4-yl-N^1-(3-trifluoromethylphenyl)-[1,3,5]triazine-2,4-diamine]	382	437	
COc1cccc(NC2N=C(N)N=C(N3CCOCC3)N2c2ccccc2)c1 (stereo not shown) [VIRADEM-12252, N-(3-Methoxyphenyl)-6-morpholin-4-yl-N^1-phenyl-[1,3,5]triazine-2,4-diamine hydrochloride]	357	425	
CCOc1ccc(NC2N=C(N)N=C(N3CCOCC3)N2c2cccc(C)c2)cc1 (stereo not shown) [VIRADEM-11794, N-(4-Ethoxyphenyl)-6-morpholin-4-yl-N^1-m-tolyl-[1,3,5]triazine-2,4-diamine hydrochloride]	545	855	
Cc1ccc(Nc2nc(N3CCCCCC3)nc(N3CCOCC3)n2)cc1 [VIRADEM-15229, (4-Azepan-1-yl-6-morpholin-4-yl-[1,3,5]triazin-2-yl)-p-tolyl-amine]	1040	1190	
COC(=O)c1ccc(Nc2nc(Nc3cccc(OC)c3)nc(N3CCOCC3)n2)cc1 [VIRADEM-12329, 4-[4-(3-Methoxyphenylamino)-6-morpholin-4-yl-[1,3,5]triazin-2-ylamino]-benzoic acid methyl ester]	368	465	
Cc1cccc(N2C(N3CCOCC3)=NC(N)=NC2Nc2ccc(Cl)cc2)c1 (stereo not shown) [VIRADEM-11680, N-(4-Chlorophenyl)-6-morpholin-4-yl-N^1-m-tolyl-[1,3,5]triazine-2,4-diamine hydrochloride]	428	521	
CC(=O)Nc1ccc(Nc2nc(Nc3ccc(Cl)cc3)nc(N3CCOCC3)n2)cc1 [VIRADEM-11847, N-{4-[4-(4-Chlorophenylamino)-6-morpholin-4-yl-[1,3,5]triazin-2-ylamino]-phenyl}-acetamide]	36	46	
CC(=O)Nc1ccc(Nc2nc(Nc3ccc(C)c(C)c3)nc(N3CCOCC3)n2)cc1 [VIRADEM-11918, N-{4-[4-(3,4-Dimethylphenylamino)-6-morpholin-4-yl-[1,3,5]triazin-2-ylamino]phenyl}-acetamide]	41	60	
CC(=O)c1cccc(Nc2nc(Nc3ccc(Cl)cc3)nc(N3CCOCC3)n2)c1 [VIRADEM-11882, 1-{3-[4-(4-chlorophenylamino)-6-morpholin-4-yl-[1,3,5]triazin-2-ylamino]-phenyl}-ethanone]	470	635	
CC(=O)c1cccc(Nc2nc(Nc3ccccc3)nc(N3CCOCC3)n2)c1 [VIRADEM-12125, 1-[3-(4-Morpholin-4-yl-6-phenylamino-[1,3,5]triazin-2-ylamino)-phenyl]-ethanone hydrochloride]	584	1370	
